Data from EP0427518B1, “NMDA-Blocking compounds, pharmaceutical compositions, their preparation and use” (priority 1989, dated 1991).

Legend:
[1] = more active than Δ-1-tetrahydrocannabionol; cited from earlier work
C-57 Black mice = assay: Inhibition of tremorogenic, convulsive and lethal effects of NMDA in C-57 Black mice; format: in vivo; conditions: for mice in which the tremorogenic, convulsive and lethal effects were prevented: dose 5 mk/kg, NMDA 100 mg/kg; for blockade of NMDA-induced tremor, seizure and lethality: at about 2.5 mg/kg body weight, summary statement, mouse strain not given
Procedure: Sabra mice (an Israeli heterogenous strain) were pretreated with either vehicle alone (control) or HU-211 (1.25 or 2.50 mg/kg; s.c.), followed by NMDA (200 mg/kg; s.c.). […] Similar experiments were performed using C-57 Black mice, in which the dose of NMDA was decreased (100 mg/kg; s.c.). Counteraction by HU-211 of the NMDA-induced effects was more pronounced in the latter strain (which is more sensitive than Sabra mice to the effects of NMDA). In the control series of both strains, which received NMDA without HU-211, all animals died in less than 10 min. following seizure onset.
The experiments described in Table 2 were repeated with C-57 Black mice, HU-211 replaced by the compound of formula (II) (compound Vb, U.S. Patent No. 4,179,517) and the compound of formula (IIa)(compound XIb, ibid.). NMDA (100 mg/kg) was administered to the mice.
In addition, the experiments were repeated with the novel compound HU-247.

Sabra mice = assay: Induction of stereotypy (stereotypy gradient of Feigenbaum et al.); format: in vivo; conditions: at about 25 mg/kg body weight; summary statement covering stereotypy, locomotor and heart rate tests; mice
Source text: As will be shown hereafter, the pharmacological profile of HU-211, and other compounds constituting the active ingredients of the present compositions, includes the induction of stereotypy, locomotor hyper-activity and tachycardia in mice (Table 1). […] This possibility was explored by examining the activity of the compounds in protecting against the tremorogenic, convulsive and lethal effects of NMDA and NMDA agonists in mice. Such effects are counteracted by virtually all NMDA antagonists.

SMILES	cannabimimetic activity relative to Δ-1-tetrahydrocannabionol [1] [times]	mice in which the tremorogenic, convulsive and lethal effects of NMDA were fully prevented (C-57 Black mice; C-57 Black mice, dose 2.5 mg/kg, same conditions as Table 2)	induction of stereotypy, locomotor hyperactivity and tachycardia (Sabra mice)	mice in which the tremorogenic, convulsive and lethal effects were prevented (C-57 Black mice; C-57 Black mice)	blockade of NMDA-induced tremor, seizure and lethality (C-57 Black mice)
CCCCCCC(C)(C)c1cc(O)c2c(c1)OC(C)(C)[C@@H]1CC=C(CO)C[C@@H]21 [HU-210, 7-hydroxy-Δ⁶-tetrahydrocannabionol 1,1-dimethylheptyl homolog, reference compound]	~100				
CCCCCCC(C)(C)c1cc(OC(C)=O)c2c(c1)OC(C)(C)[C@H]1CC=C(CO)C[C@H]21 [HU-247]		6 out of 7			
CCCCCCC(C)(C)c1cc(O)c2c(c1)OC(C)(C)[C@H]1CC=C(C)C[C@H]21 [II]			induce stereotypy, locomotor hyperactivity and tachycardia	4 out of 6	potent blockers
CCCCCCC(C)(C)c1cc(O)c2c(c1)OC(C)(C)[C@H]1CCC(C)=C[C@H]21 [IIa]			induce stereotypy, locomotor hyperactivity and tachycardia	4 out of 6	potent blockers
